Results reported in paper PMC3693846 (Cellular and molecular neurobiology, 2013).

Tested on: L-type voltage-gated calcium channel (subtype not resolved)
Type: cell-based

## CC(C)n1cnc2c(NCCCCCCNC(=O)OC(C)(C)C)nc(NCCO)nc21 [CK59, 2-(2-Hydroxyethylamino)-6-aminohexylcarbamic acid tert-butyl ester-9-isopropylpurine]
  % decrease of current at 50 μM: 67.47 % decrease of current at 50 μM
